Where two headings read alike, the source gives them in different places.
What was measured:
Assay type in all cases: biochemical
DPP8 = DPP8 (Homo sapiens (Human), UniProt Q6V1X1); experiment: DPP8 enzyme inhibition, IC50 measurement (Ala-Pro-pNA release)
Method: (§1) IC50 measurements. […] The Magellan software was used to process the data, which was then fitted using a non-linear fit model in GraFit 7. […] As a blank, the assay buffer was used instead of the enzyme. Screening measurements were carried out in duplo and IC50 values were determined in triplo with at least eight different inhibitor concentrations as described by Van Goethem et al.

DPP9 = DPP9 (Homo sapiens (Human), UniProt Q86TI2); experiment: DPP9 enzyme inhibition, IC50 measurement (Ala-Pro-pNA release); settings: for SI DPP9/8 / SI DPP9/DPP8: selectivity index; for SI DPP9/8: DPP8 IC50 over DPP9 IC50
Sequence of DPP9 (Q86TI2 whole entry): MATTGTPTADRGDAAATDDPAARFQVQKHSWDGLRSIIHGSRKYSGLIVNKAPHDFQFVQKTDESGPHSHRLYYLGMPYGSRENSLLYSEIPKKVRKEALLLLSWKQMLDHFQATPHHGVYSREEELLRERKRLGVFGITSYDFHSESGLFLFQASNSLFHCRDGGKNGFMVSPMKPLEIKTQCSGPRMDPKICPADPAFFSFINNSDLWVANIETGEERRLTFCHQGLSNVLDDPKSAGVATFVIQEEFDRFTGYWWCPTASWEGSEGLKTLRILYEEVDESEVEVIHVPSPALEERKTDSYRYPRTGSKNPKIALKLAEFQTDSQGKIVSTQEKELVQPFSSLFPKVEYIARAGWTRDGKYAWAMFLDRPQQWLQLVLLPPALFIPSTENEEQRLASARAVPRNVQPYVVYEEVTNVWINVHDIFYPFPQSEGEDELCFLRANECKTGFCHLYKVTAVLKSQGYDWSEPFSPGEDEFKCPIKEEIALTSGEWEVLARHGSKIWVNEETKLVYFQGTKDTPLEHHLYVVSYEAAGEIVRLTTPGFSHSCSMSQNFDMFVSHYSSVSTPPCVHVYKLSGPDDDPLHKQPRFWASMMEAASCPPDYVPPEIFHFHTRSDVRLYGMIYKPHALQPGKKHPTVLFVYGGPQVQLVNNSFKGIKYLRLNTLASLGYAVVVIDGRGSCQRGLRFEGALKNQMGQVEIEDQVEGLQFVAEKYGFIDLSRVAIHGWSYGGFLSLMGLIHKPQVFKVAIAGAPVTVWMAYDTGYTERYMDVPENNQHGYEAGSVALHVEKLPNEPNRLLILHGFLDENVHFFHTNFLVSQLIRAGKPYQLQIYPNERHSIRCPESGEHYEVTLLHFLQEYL
Method: DPP4 was purified from human seminal plasma as described previously.^[3]
as §1

DPP2 = DPP2 (Homo sapiens (Human), UniProt Q9UHL4); experiment: DPP2 enzyme inhibition, IC50 measurement (Lys-Ala-pNA release); settings: Table 1; mean ± SD (n = 3)
Method: as §1

FAP = FAP (Homo sapiens (Human), UniProt Q12884); experiment: FAP enzyme inhibition, IC50 measurement (Z-Gly-Pro-AMC release); settings: Table 1; mean ± SD (n = 3)
Sequence of FAP (Q12884 27-760): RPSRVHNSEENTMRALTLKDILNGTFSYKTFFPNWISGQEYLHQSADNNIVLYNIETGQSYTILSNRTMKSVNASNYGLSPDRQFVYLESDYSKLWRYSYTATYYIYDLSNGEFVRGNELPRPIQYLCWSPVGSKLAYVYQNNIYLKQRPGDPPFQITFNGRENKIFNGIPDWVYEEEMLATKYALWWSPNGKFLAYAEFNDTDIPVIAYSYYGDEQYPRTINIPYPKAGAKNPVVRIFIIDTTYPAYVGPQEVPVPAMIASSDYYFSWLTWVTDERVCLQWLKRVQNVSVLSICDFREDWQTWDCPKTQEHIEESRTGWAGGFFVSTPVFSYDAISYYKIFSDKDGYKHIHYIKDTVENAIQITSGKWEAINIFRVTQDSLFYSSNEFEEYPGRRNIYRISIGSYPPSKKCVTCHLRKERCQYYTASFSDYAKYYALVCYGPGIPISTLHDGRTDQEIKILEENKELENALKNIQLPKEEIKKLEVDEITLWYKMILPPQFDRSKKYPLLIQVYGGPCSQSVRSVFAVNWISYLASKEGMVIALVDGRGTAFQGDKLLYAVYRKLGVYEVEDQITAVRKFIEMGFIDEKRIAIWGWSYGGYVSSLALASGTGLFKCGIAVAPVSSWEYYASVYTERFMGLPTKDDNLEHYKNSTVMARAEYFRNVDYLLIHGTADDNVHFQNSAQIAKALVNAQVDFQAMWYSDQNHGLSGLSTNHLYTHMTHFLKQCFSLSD

PREP = PREP (Homo sapiens (Human), UniProt P48147); experiment: PREP enzyme inhibition, IC50 measurement (N-succinyl-Gly-Pro-AMC release); settings: Table 1; mean ± SD (n = 3)
Sequence of PREP (P48147 whole entry): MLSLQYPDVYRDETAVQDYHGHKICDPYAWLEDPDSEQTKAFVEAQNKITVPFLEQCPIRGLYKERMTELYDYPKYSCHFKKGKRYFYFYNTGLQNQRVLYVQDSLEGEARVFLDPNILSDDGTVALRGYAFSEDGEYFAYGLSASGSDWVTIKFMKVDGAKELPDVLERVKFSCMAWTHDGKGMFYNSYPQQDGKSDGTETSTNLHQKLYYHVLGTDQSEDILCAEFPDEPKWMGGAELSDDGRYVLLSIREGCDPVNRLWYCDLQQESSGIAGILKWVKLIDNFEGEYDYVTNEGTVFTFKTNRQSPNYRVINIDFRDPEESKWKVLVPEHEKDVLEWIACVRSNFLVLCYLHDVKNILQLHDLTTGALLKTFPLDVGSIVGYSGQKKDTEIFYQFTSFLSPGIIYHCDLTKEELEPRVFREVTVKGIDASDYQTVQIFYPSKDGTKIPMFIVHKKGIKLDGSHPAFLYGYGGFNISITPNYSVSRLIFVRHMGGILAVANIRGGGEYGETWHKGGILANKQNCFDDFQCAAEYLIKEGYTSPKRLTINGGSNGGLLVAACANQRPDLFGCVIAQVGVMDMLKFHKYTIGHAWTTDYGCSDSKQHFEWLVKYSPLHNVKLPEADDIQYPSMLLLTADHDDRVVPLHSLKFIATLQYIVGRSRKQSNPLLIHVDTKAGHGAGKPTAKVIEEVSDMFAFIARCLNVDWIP
Method: as §1

[1] = Table 3, mean ± SD (n = 3), read-out: DPP8 IC50 ± SD
[2] = Table 3, mean ± SD (n = 3), read-out: DPP9 IC50 ± SD
[3] = Table 4, standard method, read-out: IC50 DPP8
[4] = Table 4, standard method, read-out: IC50 DPP9

Sequence of DPP8 (Q6V1X1 whole entry): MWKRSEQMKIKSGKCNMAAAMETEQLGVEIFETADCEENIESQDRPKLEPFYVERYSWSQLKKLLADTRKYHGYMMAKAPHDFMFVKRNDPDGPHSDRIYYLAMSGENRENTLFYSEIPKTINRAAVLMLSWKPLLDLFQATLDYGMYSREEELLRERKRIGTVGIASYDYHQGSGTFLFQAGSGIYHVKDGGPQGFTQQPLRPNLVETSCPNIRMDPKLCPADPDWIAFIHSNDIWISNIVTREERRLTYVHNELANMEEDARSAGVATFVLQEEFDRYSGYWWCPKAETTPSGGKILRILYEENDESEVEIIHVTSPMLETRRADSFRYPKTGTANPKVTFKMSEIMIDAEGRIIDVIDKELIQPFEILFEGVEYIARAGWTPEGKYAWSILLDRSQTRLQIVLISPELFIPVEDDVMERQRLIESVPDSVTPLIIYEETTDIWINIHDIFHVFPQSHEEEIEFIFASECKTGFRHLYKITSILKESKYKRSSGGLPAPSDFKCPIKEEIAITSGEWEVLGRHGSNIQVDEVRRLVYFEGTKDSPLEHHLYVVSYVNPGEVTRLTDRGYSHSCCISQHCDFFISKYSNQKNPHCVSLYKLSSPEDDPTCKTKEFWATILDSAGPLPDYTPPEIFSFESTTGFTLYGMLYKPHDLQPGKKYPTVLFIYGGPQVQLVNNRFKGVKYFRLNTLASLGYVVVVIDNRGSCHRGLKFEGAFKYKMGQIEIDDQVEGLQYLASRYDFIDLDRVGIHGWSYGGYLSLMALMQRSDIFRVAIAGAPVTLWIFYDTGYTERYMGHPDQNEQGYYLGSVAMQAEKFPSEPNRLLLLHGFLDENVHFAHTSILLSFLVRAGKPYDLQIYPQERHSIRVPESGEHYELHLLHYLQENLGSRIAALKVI

Compound | IC50 (DPP8; [1]) [nM] | IC50 (DPP9; [2]) [nM] | SI DPP9/8 (DPP9; Table 3) | IC50 (DPP8; [3]) [nM] | SI DPP9/DPP8 (DPP9; Table 4) | IC50 (DPP9; [4]) [nM] | also measured
N-(-3-((2-(5-fluoroisoindolin-2-yl)-2-oxoethyl)amino)adamantan-1-yl)adamantane-1-carboxamide [Compound 45] | 1180 ± 138 | 38 ± 10 | 31 |  |  |  | 
Cl.O=C(NC12CC3CC(CC(NCC(=O)N4Cc5ccc(F)cc5C4)(C3)C1)C2)c1cccnc1 [Compound 98, N-((1s,3r,5R,7S)-3-((2-(5-fluoroisoindolin-2-yl)-2-oxoethyl)amino)adamantan-1-yl)nicotinamide hydrochloride] |  |  |  | 270 ± 33 | 3 | 88 ± 23 | 
O=C(NC(c1ccccc1)c1ccccc1)OC12CC3CC(CC(NCC(=O)N4Cc5ccccc5C4)(C3)C1)C2 [Compound 33, 3-((2-(isoindolin-2-yl)-2-oxoethyl)amino)adamantan-1-yl benzhydrylcarbamate] | 175 ± 33.1 | 14.3 | 12.2 |  |  |  | 
Cl.O=C(NC12CC3CC(CC(NCC(=O)N4Cc5ccc(F)cc5C4)(C3)C1)C2)c1ccc(-c2ccccn2)cc1 [Compound 90, N-((1s,3r,5R,7S)-3-((2-(5-fluoroisoindolin-2-yl)-2-oxoethyl)amino)adamantan-1-yl)-4-(pyridin-2-yl)benzamide hydrochloride] |  |  |  | 127 ± 23 | 37 | 3 | 
O=C(NCc1ccc(F)cc1F)OC12CC3CC(CC(NCC(=O)N4Cc5ccccc5C4)(C3)C1)C2 [Compound 39, 3-((2-(isoindolin-2-yl)-2-oxoethyl)amino)adamantan-1-yl (2,4-difluorobenzyl)carbamate] | 823 ± 185 | 48.3 | 17.0 |  |  |  | 
O=C(NCCCc1ccccc1)OC12CC3CC(CC(NCC(=O)N4Cc5ccccc5C4)(C3)C1)C2 [Compound 38, 3-((2-(isoindolin-2-yl)-2-oxoethyl)amino)adamantan-1-yl (3-phenylpropyl)carbamate] | 1010 ± 132 | 100 | 10.1 |  |  |  | 
O=C1CCC(N2C(=O)c3cccc(NCCOCCOC(=O)NC45CC6CC(CC(NCC(=O)N7Cc8ccc(F)cc8C7)(C6)C4)C5)c3C2=O)C(=O)N1 (centres unmarked) [Compound 76, 2-(2-((2-(2,6-Dioxopiperidin-3-yl)-1,3-dioxoisoindolin-4-yl)amino)ethoxy)ethyl (3-((2-(5-fluoroisoindolin-2-yl)-2-oxoethyl)amino)adamantan-1-yl)carbamate] | 8 | 1.4 | 6 |  |  |  | 
CC(C)(C)OC(=O)NC12CC3CC(CC(NCC(=O)N4Cc5cc(F)c(F)cc5C4)(C3)C1)C2 [Compound 49] | 613 ± 154 | 3.4 | 180.3 |  |  |  | 
CCCCOC12CC3CC(CC(NCC(=O)N4C[C@H]5C[C@H]5[C@H]4C#N)(C3)C1)C2 [Compound 5o, (1R,2S,5S)-3-((-3-butoxyadamantan-1-yl)glycyl)-3-azabicyclo[3.1.0]hexane-2-carbonitrile] |  |  |  |  |  |  | IC50 (DPP8; Table 1, mean ± SD (n = 3), read-out: IC50 DPP8): > 10000 nM; IC50 (DPP9; Table 1, mean ± SD (n = 3), read-out: IC50 DPP9): 990 ± 400 nM; IC50 (DPP2): > 5 µM; IC50 (FAP): > 10 µM; IC50 (PREP): > 10 µM
CC(C)(C)NC(=O)NC12CC3CC(CC(NCC(=O)N4Cc5cc(F)c(F)cc5C4)(C3)C1)C2.Cl [Compound 85, 1-(tert-butyl)-3-((1s,3r,5R,7S)-3-((2-(5,6-difluoroisoindolin-2-yl)-2-oxoethyl)amino)adamantan-1-yl)urea hydrochloride] |  |  |  | 1330 ± 97 | 41 | 32 | 
COC(=O)[C@H](Cc1c[nH]c2ccccc12)NC(=O)OC12CC3CC(CC(NCC(=O)N4Cc5ccc(F)cc5C4)(C3)C1)C2 [Compound 60, Methyl (((3-((2-(5-fluoroisoindolin-2-yl)-2-oxoethyl)amino)adamantan-1-yl)oxy)carbonyl)-L-tryptophanate] | 689 ± 32.3 | 43.8 | 15.7 |  |  |  | 
O=C(O)CNC(=O)OC12CC3CC(CC(NCC(=O)N4Cc5ccc(F)cc5C4)(C3)C1)C2 [Compound 53] | 1740 ± 59.1 | 39.6 | 43.9 |  |  |  | 
Cl.O=C(NC12CC3CC(CC(NCC(=O)N4Cc5ccc(F)cc5C4)(C3)C1)C2)c1ccc(-c2ccncc2)cc1 [Compound 91, N-((1s,3r,5R,7S)-3-((2-(5-fluoroisoindolin-2-yl)-2-oxoethyl)amino)adamantan-1-yl)-4-(pyridin-4-yl)benzamide hydrochloride] |  |  |  | 102 ± 28 | 12 | 8 | 
